Assay results as given in US20230045199A1, “COMPOSITIONS AND METHODS FOR HEMOGLOBIN PRODUCTION” (THE CHILDREN'S HOSPITAL OF PHILADELPHIA, priority 2019, published 2023).
Like-named read-outs stand apart in the source and are kept apart here.

Test system: PP6C
Assay: Western blot of PP6C and gamma-globin in primary human cells after RNP electroporation of SpCas9 with guide RNA
Format: cell-based
Excerpt: FIGS. 2A-2D provide data regarding validation of PP6C as a regulator of HbF in human primary cells utilizing RNP-based electroporation of SpCas9 with guide RNA targeting PP6C. FIG. 2A depicts protein levels by Western blot of PP6C and gamma-globin with 6 independent guide RNA targeting PP6C or a non-targeting guide RNA. […] These specific guide RNAs were utilized for further primary human cell testing. FIG. 2B provides a graph of gamma globin mRNA levels in four independent biological replicates of human primary cells treated with PP6C sgRNA #1 or #3; a guide RNA targeting the BCL11A +58 enhancer (positive control), or a non-targeting guide RNA (negative control). FIG. 2C provides representative flow cytometric plots of HbF staining (top) and compiled F-cell flow cytometric staining in four independent biological replicates (bottom) in cells treated with PP6C sgRNA, BCL11A +58 sgRNA, or non-targeting sgRNA. […] FIG. 2D are representative cation-exchange high performance liquid chromatography (HPLC) tracings (top) and complied HPLC HbF+ quantitation in two independent biological replicates (bottom) in cells treated with PP6C sgRNA, BCL11A +58 sgRNA, or non-targeting sgRNA. HbF elutes as a distinct peak (grey box), followed by adult hemoglobin (HbA). Percentages are quantified as HbF percentage of total globins (HbF+HbA).
Cells were transduced with one of the six guide RNAs targeting PP6C, a guide RNA targeting BCL11A exon 2 (positive control; BCL11A is a repressor of HbF expression), or non-targeting guide RNA or untreated control (negative controls).

Substance | PP6C protein level | gamma-globin protein levels | gamma-globin protein levels (listed as PP6C guide RNA #1) | gamma-globin protein levels (listed as PP6C guide RNA #3)
PP6C sgRNA1: CRISPR sgRNA targeting PP6C, sequence GCACATCAACTAGTGCACGA (SEQ ID NO: 5) (listed as DNA, chemistry not given here) | significantly depleted | significantly increased | significant induction | 
PP6C sgRNA3: CRISPR sgRNA targeting PP6C, sequence GGAACTGCCCGGAATAACTT (SEQ ID NO: 7) (listed as DNA, chemistry not given here) | significantly depleted | significantly increased |  | significant induction
PP6C sgRNA4: CRISPR sgRNA targeting PP6C, sequence TCCTCGGGGACTGATAGCCC (SEQ ID NO: 8) (listed as DNA, chemistry not given here) | significantly depleted | significant induction |  | 
